# Test results: patent publication US20120219561A1, “Prophylaxis Against Cancer Metastasis” (Ingeneron, Inc., priority 2009, published 2012)
# Columns and labels:
# CXCR4 receptor = conditions: animal and human studies; cited from earlier work
# [1] = test system: LCN2 expression in SKBr3 cells; test: Western blotting of LCN2 levels in SKBr3 cells incubated with pathway inhibitors; type: cell-based, human
# Protocol: FIG. 3 depicts experiments showing that LCN2 (NGAL) is a down-stream target of the HER2/PI-3K/AKT/NF-κB pathway. A. Western blotting of LCN2 levels in HER2^+SKBr3 cells treated with Herceptin. B. Western blotting of LCN2 levels in SKBr3 cells incubated with PI-3K inhibitor LY 294002. C. Western blotting of LCN2 levels in SKBr3 cells incubated with the NF-KB inhibitor Bay11-7082. D. Western blotting of LCN2 levels in SKBr3 cells transiently expressing active or dominant negative AKT.
# In addition, overexpression of dominant negative AKT led to reduced expression of LCN2, while overexpression of dominant active AKT increased LCN2 levels ([…]). […] Iannetti A, et al. “The neutrophil gelatinase-associated lipocalin (NGAL), a NF-kappaB-regulated gene, is a survival factor for thyroid neoplastic cells” Proc Natl Acad Sci USA 105(37) (2008) 14058.
# 4T1 mammospheres = test: Transwell migration assay of 4T1 mammospheres; type: cell-based, murine; conditions: recombinant SDF-1 in serum-free medium in lower chamber
# Protocol: FIG. 5 show the mediators for interaction between stem cells and cancer cells. (A) 4T1 cells and especially spheroid-forming 4T1 cells migrate toward the conditioned medium of mASC. 4T1 cells (3×10^4) were plated in the upper chamber of a 3 μm transwell system. The lower chamber was filled with 1 ml of 72 h conditioned medium of mASC. After 24 h of migration through the transwell membrane, cells were fixed and stained with calcein. The results are the mean and SD number of migrated cells per microscopic field under fluorescent microscope. (B) Data showing that mASC but not 4T1 cells produce SDF-1; 4T1 cells especially spheroid-forming 4T1 cells show higher messenger RNA levels of the specific receptor CXCR4. Secreted amounts of SDF-1a were measured by enzyme-linked immunosorbent assay and CXCR4 messenger RNA levels were determined by quantitative reverse transcription-polymerase chain reaction (RT-PCR). Reverse transcription-polymerase chain reaction results were normalized against GAPDH. (C) 4T1 cells and mammospheres migrate toward recombinant SDF-1 in a transwell system. Recombinant murine SDF-1 in serum-free medium was filled into the lower chamber in stated concentrations. CXCR4 inhibition was performed by 30 μg/ml neutralizing antibody 1 h before and during the migration assay. […]
molecule,measurement,setting,value
c1cc(CN2CCCNCCNCCCNCC2)ccc1CN1CCCNCCNCCCNCC1 [AMD3100],hematopoietic stem cell mobilization,CXCR4 receptor,able to induce hematopoietic stem cell mobilization
Cc1ccc(S(=O)(=O)/C=C/C#N)cc1 [Bay11-7082],LCN2 expression,[1],reduced in a dose-dependent manner
"recombinant SDF-1: recombinant murine SDF-1 (CXCL12), ligand of CXCR4",migration of 4T1 spheroid-forming cells,4T1 mammospheres,triggers migration
